Test results: patent publication US12098352B2, “Stem cell-based lung-on-chip models” (EMULATE, INC., priority 2018, dated 2024)

Legend:
[1] = tested on: Alveolus-Chip epithelium/endothelium barrier; assay: Barrier function assay (fluorescent dextran / Lucifer Yellow leakage) in Open-Top Alveolus-Chip; type: cell-based, human
Source text: We studied interaction between different chip compartments by perturbating the system with biological and chemical stressors such as LPS, and H2O2 which are known to induce a reversible disruption of the cellular monolayer after acute administration both in vivo and in vitro. […] The presence of a strong barrier is indirectly confirmed by the presence of continuous pattern of E-cad and VE-cad in the monolayer of Alveolar epithelial and endothelial cell, respectively.
Given the limited availability of in vitro models that can closely mimic human alveolar epithelium function and/or its disease states, we explored whether a microfluidic Alveolus-Chip lined with the primary alveolar epithelial cells on an artificial lung stroma with embedded primary lung fibroblasts and pulmonary microvascular endothelial cells would model a lung injury state. To test this, we exposed the Alveolus-Chips to an acute damage generated by exposure to H2O2 under continuous infusion through the epithelium top channel, similarly to as it is […] administered in mice.
Air-Liquid interface was replaced by phenol red free MEM (GIBCO: 51200-038) and medium in the bottom fluidical spiraled channel substituted by one containing 1 mg/ml Lucifer Yellow CH, Lithium Salt (ThermoFisher: L453) or 0.1 mg/ml Dextran, Fluorescein, 3000 MW, Anionic, Lysine Fixable (ThermoFisher: D3306). Leakage of the fluorescent probe from the lumen of the spiraled channel to the epithelial compartment was collected from the outlet reservoirs after indicated hours of perfusion. The fluorescence intensity was measured with a 96-well fluorimeter at excitation/emission indicated by the manufacturer.

IL-6, IL-8 and MCP-1 = assay: Cytokine secretion in chip medium effluent (ELISA); type: cell-based, human
Source text: We studied interaction between different chip compartments by perturbating the system with biological and chemical stressors such as LPS, and H2O2 which are known to induce a reversible disruption of the cellular monolayer after acute administration both in vivo and in vitro. […] To assess changes in the barrier function following the exposure to these insults, we added a fluorescent dye (e.g. […]—Dextran-FITC) to the endothelial compartment, which is under control condition confirmed that the endothelium and epithelium form a barrier to the dies. The presence of a strong barrier is also indirectly confirmed by the presence of continuous pattern of E-cad and VE-cad in the monolayer of Alveolar epithelial and endothelial cell, respectively. […] We also decoupled the effect of single biological component to the inflammatory response by selectively removing them from the system in an integrated matrix. […] In fact, the recorded value of IL-6 and IL-8 is not the algebraic sum of the concentration of the factors released by the single cellular components. […]
The amount of Surfactant B and C was collected from chip epithelial cell surface by PBS washing and measured by Human SFTPB/Surfactant Protein B ELISA Kit (Sandwich ELISA)—LS-F4439 and Human SFTPC/Surfactant Protein C ELISA Kit (Sandwich ELISA)—LS-F12438 (LifeSpanBioScience) following the manufacturer's protocol. The color reaction was measured at 450 nm with a photometer (specification). […] Similarly, the presence of IL-6, IL-8 and MPC in medium samples was detected by Human TLR-induced Cytokines II: Microbial-induced Multi-Analyte ELISArray Kit (MEH-008A) (Qiogen) following the manufacturer's protocol. The color reaction was measured at 450 nm with a photometer (specification). […]

Lipopolysaccharide [LPS]
effect of stressor on barrier function ([1]; LPS 10 ng/ml and/or H2O2 10 mM): causes barrier breakdown and disruption of intracellular junction | reversibility of barrier breakdown after removal of stressor ([1]; additional 2 days in fresh medium): barrier breakdown in our chip was reversable | release of IL-6, IL-8 and MCP-1 in medium effluent (IL-6, IL-8 and MCP-1; 24 hours of exposure): increases of lung specific cytokines | IL-6, IL-8 and MCP-1 secretion, fold increase in relation to untreated controls (IL-6, IL-8 and MCP-1; LPS stimulation, co-presence of epithelial cells): 40-90 fold
